For one assay, the system named is striatum. Description: Total tissue content of DA, 5-HT and metabolites in striatum after sacrifice. The format is in vivo, rat. As to conditions: UMP-fed rats vs control. As for the experimental part: (§1) Retired breeder rats consumed a diet containing normal chow (Harlan Tech Lad, Madison, Wis.) supplemented with or without uridine 5′-monophosphate (UMP) (2.5%, w/w)—at a final concentration of 500 mg/kg/day, for a period of six weeks. Microdialysis was performed with cannulas implanted directly within the right corpus striatum of the control and treated rats. Cannulas were implanted on day 1, and samples were collected on days 3 and 4. Micro-dialysates (22.5 microliter, collected over 15 minutes) were assayed for dopamine (DA), 3,4-dihydroxyphenylacetic acid (DOPAC), homovanillic acid (HVA), 5-hydroxy-tryptamine (5-HT) and 5-hydroxyindoleacetic acid (5-HIAA). Real-time neurotransmitter level measurements were taken on samples drawn prior to and following depolarization of the neuron membrane via local application of […] potassium chloride (KCl) solution. Animals were then sacrificed, and striatum, hippocampus and temporal cortex were assayed for DA, DOPAC, HVA, 5HT, 5HIAA, DNA, protein and phosphatidyl choline (PC) content. DA and metabolites in dialysates and tissue samples were determined using an ESA Coulochem 11 5100A detector (E1=−175 mV; E2=+325 mV; Eguard=350 mV) with an ESA Microdialysis Cell (model 5014B, ESA, North Chelmsford, Mass.). The mobile phase (MD-TM, ESA) consisted of 75 mM NaH2PO4, 1.7 mM 1-octanesulfonic acid, 100 ?l/L Triethylamine, 25 ?M EDTA, 10% acetonitrile, pH 3.0. The flow rate was 0.4 mL/min. The column (ESA MD 150, 3×150 mm, 3 ?m, 120 Å) was kept in a 40° C. column oven. Samples were injected to HPLC by an Alltech 580 autosampler (Alltech, Deerfield, Ill.) and maintained to 4° C. with a cooling tray during analysis. Data were captured by Alltech AllChrom™ data system, and analyzed with AllChrom plus™ software. A timeline program, which could change the detection gain during sample separation and detection, was used to make it possible to get low DA and high metabolites concentration data in dialysate through one injection.

Assay [1] has as its system neurotransmitter release in right corpus striatum. Briefly: Microdialysis of right corpus striatum of UMP-fed rats before, during and after potassium depolarization. The format is in vivo, rat. As to conditions: striatal microdialysate. As for the experimental part: as §1, with “injection. Real-time neurotransmitter levels were assayed by measuring the faradaic current at the respective oxidation potentials with a carbon fiber electrode inserted through the cannula.” for “injection.”

The mark [2] stands for this setting: striatum and striatal extracellular fluid (ECF).
[3] abbreviates: UMP-fed rat vs control, before stimulation.
The mark [4] stands for this setting: UMP-fed rat vs control, during and after stimulation.
[5] abbreviates: rats fed UMP 2.5% w/w in chow (500 mg/kg/day) for six weeks, depolarization by local 100 nm KCl, vs control rat.

Structures are written as SMILES.

In the case of `O=c1ccn([C@@H]2O[C@H](COP(=O)(O)O)[C@@H](O)[C@H]2O)c(=O)[nH]1` [UMP, uridine 5′-monophosphate], in the assay on striatum (striatal tissue), the “total level of 5-HT in the striatum” value was “did not affect” and the “total level of DA in the striatum” value was “did not affect”. Also, in the assay with striatum (setting [2]), the “total striatal level of 5-HIAA” value was “slightly reduced”, the “total striatal level of DOPAC” value is on record as “slightly reduced” and the “total striatal level of HVA” value is listed as “slightly reduced”. Moreover, the “total striatal levels of DA metabolites” value in the assay on striatum (summary statement) is reported as “decreased”. Further, in assay [1] (setting [3]), the “basal level of 5-HIAA” value is given as “lower basal levels”, the “basal level of DOPAC” value was “lower basal levels” and the “basal level of HVA” value is given as “lower basal levels”. Moreover, in assay [1] (setting [4]), the “release of 5-HIAA on potassium stimulation” value was “increased, although by a smaller margin than DA and 5-HT, after but not during stimulation”; the “release of DOPAC on potassium stimulation” value was “increased, although by a smaller margin than DA and 5-HT, after but not during stimulation”; the “release of HVA on potassium stimulation” value was “increased, although by a smaller margin than DA and 5-HT, after but not during stimulation”. For the same compound, in assay [1] (setting [5]), the “release of 5-HT during and after depolarization” value is given as “enhanced”; the “release of DA during and after depolarization” value was “enhanced”. Moreover, the “release of DA during and after depolarization” value in assay [1] (rats fed UMP 2.5% w/w in chow (500 mg/kg/day) for six weeks, depolarization by local 100 nm KCl, vs control rat, listed as uridine monophosphate) is “significantly enhanced”.

The record behind these values is patent publication US9572830B2, “Uridine effects on dopamine release” (MASSACHUSETTS INSTITUTE OF TECHNOLOGY, priority 2004, dated 2017).
